From paper PMC4055767, “Selective Chemical Inhibition of agr Quorum Sensing in Staphylococcus aureus Promotes Host Defense with Minimal Impact on Resistance” (PLoS Pathogens, 2014)

How the values were obtained:
[1] = molecular target: AgrA (AgrAC, C-terminal DNA binding domain) (Staphylococcus aureus, UniProt P0A0I7); assay: EMSA with purified AgrAC and FAM-labeled […] bp DNA duplex; supported by AgrA-driven agr::P3 lux reporter in agr-null S. aureus
AgrA = molecular target: T1, AgrA (Staphylococcus aureus, UniProt P0A0I7); assay: AgrA-dependent agr::P3 lux reporter in agr-null S. aureus ([…]), positive control; format: cell-based
T1 construct: plasmid-encoded AgrA (pCM63) in S. aureus Δagr reporter strain AH3048
T1 sequence (P0A0I7 whole entry): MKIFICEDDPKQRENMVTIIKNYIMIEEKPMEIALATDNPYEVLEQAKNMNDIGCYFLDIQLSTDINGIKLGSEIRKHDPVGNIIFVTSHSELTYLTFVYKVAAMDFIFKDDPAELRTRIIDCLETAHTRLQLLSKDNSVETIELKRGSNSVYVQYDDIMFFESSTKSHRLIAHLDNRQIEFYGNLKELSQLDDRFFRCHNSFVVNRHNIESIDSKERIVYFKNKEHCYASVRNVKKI

Chain of AgrA (AgrAC, C-terminal DNA binding domain) (P0A0I7 137-238): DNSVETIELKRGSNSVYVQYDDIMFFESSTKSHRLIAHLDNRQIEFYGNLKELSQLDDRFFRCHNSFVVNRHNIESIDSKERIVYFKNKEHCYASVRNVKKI

Row | SMILES | IC50 [1] [µM] | AgrA-dependent agr::P3 lux reporter in agr-null S. aureus (1.56-100 μM), positiv (AgrA)
1 | CC(C)c1ccc(S(=O)(=O)c2n[nH]n3c2nc(=O)c2ccccc23)cc1 [savirin, 3-(4-propan-2-ylphenyl) sulfonyl-1H-triazolo [1,5-a] quinazolin-5-one] | 83 | –
2 | O=C(O)c1cc(-c2ccc(F)cc2F)ccc1O [diflunisal] | – | diflunisal and 4-phenoxyphenol, compounds published by others as inhibitors of AgrAc DNA binding ability
